Assays:
[1] = system: relapsed or refractory AML patients with activating FLT3 mutations (FLT3-ITD); experiment: Clinical trial NCT02400281: oral crenolanib besylate in combination with intravenous azacitidine, single-patient case reports; format: in vivo, human
Description: For the majority of patients, the clinical response is short-lived. Response criteria for AML clinical trials are adapted from the International Working Group for AML (Cheson, Bennett et al. 2003). Responders are patients who obtain a Complete Response (CR), Complete Response with incomplete blood count recovery (CRi), or Partial Remission (PR). Briefly, criteria are as follows: • 1. Complete Remission (CR): • a. Peripheral blood counts: • i. No circulating blasts • ii. Neutrophil count ≥1.0×10^9/L • iii. Platelet count ≥100×10^9/L • b. Bone marrow aspirate and biopsy: • i. ≤5% blasts • ii. No Auer Rods • iii. No extramedullary leukemia • 2. Complete remission with incomplete blood count recovery (CRi): • a. Peripheral blood counts: • i. No circulating blasts • ii. Neutrophil count <1.0×10^9/L, or • iii. Platelet count <100×10^9/L • b. Bone marrow aspirate and biopsy • i. ≤5% blasts • ii. No Auer Rods • iii. No extramedullary leukemia • 3. Partial remission: • a. All CR criteria if abnormal before treatment except: • b. ≥50% reduction in bone marrow blast but still >5%
(§1) To overcome the poor prognosis of the persistent FLT3-ITD mutation, the patient was provided oral crenolanib besylate in combination with intravenous azacitidine on a clinical trial for relapsed or refractory AML patients with activating FLT3 mutations (NCT02400281). At baseline, the patient presented with 64% bone marrow blasts. The patient began treatment with 75 mg/m^2/day of azacitidine for 7 days and 60 mg of oral crenolanib besylate three times daily for the remainder of the 28 days cycle.
as §1, with “13%” for “64%”, “80” for “60”, “daily.” for “daily for the remainder of the 28 days cycle.”

[2] = system: PDGFR, FLT3, and TRK kinases; conditions: versus other kinases, including c-KIT, VEGFR2, TIE2, FGFR2, EGFR, ERBB2, and SRC; cited from earlier work
[3] = system: PB and BM blasts of leukemia patients; conditions: cited from earlier work

CC1(COc2ccc3c(c2)ncn3-c2ccc3cccc(N4CCC(N)CC4)c3n2)COC1 [crenolanib besylate]
bone marrow blasts ([1]; Example 1: person, FLT3-ITD relapsed AML, baseline 64% blasts, azacitidine 75 mg/m^2/day for 7 days + crenolanib besylate 60 mg oral three times daily, after 27 days): 3% | clinical response ([1]; Example 1: same patient and regimen with azacitidine, after 27 days, neutrophils recovered, platelets partially recovered): CRi | bone marrow blasts ([1]; Example 2: person, FLT3-ITD AML relapsed after transplant, baseline 13% blasts, azacitidine 75 mg/m^2/day for 7 days + crenolanib besylate 80 mg oral three times daily, after 28 days): 1% | clinical response ([1]; Example 2: same patient and regimen with azacitidine, after 28 days): morphological leukemia free state | clinical response on continued single agent therapy ([1]; Example 2: single agent crenolanib besylate for an additional 28 days): maintained a MLFS

CC1(COc2ccc3c(c2)ncn3-c2ccc3cccc(N4CCC(N)CC4)c3n2)COC1 [crenolanib]
selectivity for PDGFR, FLT3, and TRK kinases [2]: significantly more selective

CNC(=O)c1cc(Oc2ccc(NC(=O)Nc3ccc(Cl)c(C(F)(F)F)c3)cc2)ccn1 [sorafenib]
bone marrow (BM) blast reduction [3]: only modest BM blast reductions
